Test results taken from PMC7549094 (Journal of Medicinal Chemistry, 2020).
≈ marks a conversion by molar mass, not a printed value.

How the values were obtained:
[1] = dissolution study and supersaturation stability in FASSIF; type: physicochemical
hr ERBB2 = hr ERBB2 (Homo sapiens, UniProt P04626); experiment: receptor profile (Table S4); type: biochemical
hr PDE4D = hr PDE4D (Homo sapiens, UniProt Q08499); experiment: receptor profile (Table S4); type: biochemical
hr Beta2 ag = hr Beta2 ag (Homo sapiens, UniProt P07550); experiment: receptor profile (Table S4); type: biochemical
Sequence of hr Beta2 ag (P07550 whole entry): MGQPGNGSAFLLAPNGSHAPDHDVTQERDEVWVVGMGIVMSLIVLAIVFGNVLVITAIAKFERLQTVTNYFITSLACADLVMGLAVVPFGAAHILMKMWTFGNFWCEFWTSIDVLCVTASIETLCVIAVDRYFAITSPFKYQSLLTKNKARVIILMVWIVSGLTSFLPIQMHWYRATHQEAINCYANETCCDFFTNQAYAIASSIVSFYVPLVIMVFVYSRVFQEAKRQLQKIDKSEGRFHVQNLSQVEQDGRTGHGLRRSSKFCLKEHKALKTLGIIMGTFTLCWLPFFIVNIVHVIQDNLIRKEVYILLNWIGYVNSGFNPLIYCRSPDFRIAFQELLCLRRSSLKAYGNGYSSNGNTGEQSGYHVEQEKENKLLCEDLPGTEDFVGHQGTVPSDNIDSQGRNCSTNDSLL

[2] = system: intramacrophage L. donovani amastigotes; experiment: L. donovani amastigote proliferation within primary mouse macrophages; type: cell-based; conditions: Leishmania donovani, Macrophage
[3] = high-throughput solubility pH 6.8; type: physicochemical; conditions: high-throughput assay format, read-out: HT sol. pH 6.8
hr DAT = hr DAT (Homo sapiens, UniProt Q01959); experiment: receptor profile (Table S4); type: binding
Sequence of hr DAT (Q01959 whole entry): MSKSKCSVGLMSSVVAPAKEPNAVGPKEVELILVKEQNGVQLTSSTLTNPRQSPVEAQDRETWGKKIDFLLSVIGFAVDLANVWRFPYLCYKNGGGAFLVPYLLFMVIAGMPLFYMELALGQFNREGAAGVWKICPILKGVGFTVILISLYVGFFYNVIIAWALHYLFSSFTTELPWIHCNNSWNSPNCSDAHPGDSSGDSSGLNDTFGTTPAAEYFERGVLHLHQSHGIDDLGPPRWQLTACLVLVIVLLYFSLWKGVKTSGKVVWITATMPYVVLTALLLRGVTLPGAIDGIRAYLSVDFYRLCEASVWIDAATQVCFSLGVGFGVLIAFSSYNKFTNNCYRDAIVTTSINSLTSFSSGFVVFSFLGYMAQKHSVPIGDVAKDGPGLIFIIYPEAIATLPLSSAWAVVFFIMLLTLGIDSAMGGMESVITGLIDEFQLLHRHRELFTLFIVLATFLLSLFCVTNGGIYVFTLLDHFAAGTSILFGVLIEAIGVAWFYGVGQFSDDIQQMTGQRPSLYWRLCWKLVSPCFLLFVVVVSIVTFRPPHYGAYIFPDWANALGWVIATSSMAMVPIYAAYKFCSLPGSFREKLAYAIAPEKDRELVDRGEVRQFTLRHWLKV

hr CB1 ag = hr CB1 ag (Homo sapiens, UniProt P21554); experiment: receptor profile (Table S4); type: biochemical
Sequence of hr CB1 ag (P21554 whole entry): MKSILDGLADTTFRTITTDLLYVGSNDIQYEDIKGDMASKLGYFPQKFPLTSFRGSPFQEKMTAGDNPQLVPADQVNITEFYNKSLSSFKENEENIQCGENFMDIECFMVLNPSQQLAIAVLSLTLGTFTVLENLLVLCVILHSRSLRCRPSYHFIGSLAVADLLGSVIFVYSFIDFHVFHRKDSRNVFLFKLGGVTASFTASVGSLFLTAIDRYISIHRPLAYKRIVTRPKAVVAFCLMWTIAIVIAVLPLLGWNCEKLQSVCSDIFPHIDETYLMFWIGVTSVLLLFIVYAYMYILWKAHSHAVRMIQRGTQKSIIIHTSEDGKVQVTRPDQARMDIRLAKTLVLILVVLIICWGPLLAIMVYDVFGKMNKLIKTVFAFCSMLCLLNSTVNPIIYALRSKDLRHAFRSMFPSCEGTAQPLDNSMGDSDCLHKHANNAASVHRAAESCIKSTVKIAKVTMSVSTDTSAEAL

in vitro AMES = type: cell-based
hr GHS = hr GHS (Homo sapiens, UniProt Q92847); experiment: receptor profile (Table S4); type: binding
Sequence of hr GHS (Q92847 whole entry): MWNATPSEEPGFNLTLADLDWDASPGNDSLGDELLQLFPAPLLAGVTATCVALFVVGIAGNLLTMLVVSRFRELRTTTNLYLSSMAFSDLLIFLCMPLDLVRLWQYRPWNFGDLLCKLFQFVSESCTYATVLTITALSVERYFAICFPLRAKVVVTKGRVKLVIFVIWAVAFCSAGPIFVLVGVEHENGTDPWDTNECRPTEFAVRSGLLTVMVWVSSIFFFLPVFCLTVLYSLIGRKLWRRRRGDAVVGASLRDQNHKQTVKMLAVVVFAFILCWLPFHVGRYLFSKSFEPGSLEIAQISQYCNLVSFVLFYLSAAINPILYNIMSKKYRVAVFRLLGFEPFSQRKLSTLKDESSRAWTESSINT

[4] = in vivo micronucleus (MNT) study in rat
[5] = system: T. brucei bloodstream form overexpressing PSMB5 Y113F; experiment: growth inhibition of T. brucei overexpressing PSMB5 Y113F; type: cell-based
Excerpt: Generation of T. brucei strains ectopically expressing proteasome β4 and β5 subunit variants
All the T. brucei proteasome mutants were generated by following protocols described earlier (Khare et
assembly technology (NEBuilder high fidelity DNA assembly cloning kit). The sense (5′-
Y113F gene was generated from the wild-type PSMB5 construct by site-directed mutagenesis using
mutagenic sense (5′- [sequence]tcgta[sequence]-3′), antisense (5′-
[sequence]-3′) primers and QuikChange II Site-Directed Mutagenesis Kit
(Stratagene). The sequences of the wild-type and mutant PSMB5 genes were verified by sequencing and
both gene versions were cloned into the T. brucei expression vector pHD1034 under control of a
ribosomal RNA promoter. Transfected T. brucei Lister 427 cells were selected in medium supplemented
with puromycin at 1 μg/ml. Susceptibility of transfected T. brucei cell lines to compounds was assessed
after 2 days of compound treatment. Parasite viability was determined with CellTiter-Glo. All assays were
carried out in three biological replicates. Reported EC50 values for T. brucei parasites ectopically
expressing PSMB5 proteins were calculated from three technical replicates.
inhibition of T. brucei bloodstream form constitutively overexpressing wild -type PSMB5 or PSMBY113F

[6] = biological target: wild-type (PSMB4^WT) L. tarentolae proteasome (Leishmania tarentolae, UniProt A0A640KTY7+A0A640KW57); experiment: chymotrypsin-like activity of purified wild-type L. tarentolae proteasome; type: biochemical; conditions: n = 3 technical replicates
[7] = microsomal extraction ratio, 1 h incubation in microsomes
hr TP antag = biological target: T1, hr TP antag (Homo sapiens, UniProt P21731); experiment: receptor profile (Table S4); type: biochemical
T1 sequence (P21731 1-343): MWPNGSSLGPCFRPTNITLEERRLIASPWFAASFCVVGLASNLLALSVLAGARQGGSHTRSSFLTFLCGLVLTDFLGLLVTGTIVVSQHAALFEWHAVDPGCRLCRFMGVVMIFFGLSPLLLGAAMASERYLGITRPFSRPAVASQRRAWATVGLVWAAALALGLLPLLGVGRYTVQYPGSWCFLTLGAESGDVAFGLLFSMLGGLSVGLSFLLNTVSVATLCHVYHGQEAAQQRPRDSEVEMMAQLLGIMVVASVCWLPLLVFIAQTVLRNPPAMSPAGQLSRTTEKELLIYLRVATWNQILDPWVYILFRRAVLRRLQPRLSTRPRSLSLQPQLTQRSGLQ

hr Mot = hr Mot (Homo sapiens, UniProt O43193); experiment: receptor profile (Table S4); type: binding
Sequence of hr Mot (O43193 whole entry): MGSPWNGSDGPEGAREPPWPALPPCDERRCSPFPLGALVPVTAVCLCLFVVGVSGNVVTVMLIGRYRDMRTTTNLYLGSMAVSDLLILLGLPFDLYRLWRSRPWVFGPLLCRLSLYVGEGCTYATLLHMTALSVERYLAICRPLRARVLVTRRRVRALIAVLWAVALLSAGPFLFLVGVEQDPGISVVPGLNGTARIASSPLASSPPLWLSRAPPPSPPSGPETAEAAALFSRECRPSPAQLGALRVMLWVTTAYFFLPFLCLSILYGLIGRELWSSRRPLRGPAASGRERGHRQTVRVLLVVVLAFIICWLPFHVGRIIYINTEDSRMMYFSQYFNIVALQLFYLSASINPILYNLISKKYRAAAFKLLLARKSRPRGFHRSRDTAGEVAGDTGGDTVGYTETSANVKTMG

hr M2 antag = biological target: T2, hr M2 antag (Homo sapiens, UniProt P08172); experiment: receptor profile (Table S4); type: biochemical
T2 sequence (P08172 1-466): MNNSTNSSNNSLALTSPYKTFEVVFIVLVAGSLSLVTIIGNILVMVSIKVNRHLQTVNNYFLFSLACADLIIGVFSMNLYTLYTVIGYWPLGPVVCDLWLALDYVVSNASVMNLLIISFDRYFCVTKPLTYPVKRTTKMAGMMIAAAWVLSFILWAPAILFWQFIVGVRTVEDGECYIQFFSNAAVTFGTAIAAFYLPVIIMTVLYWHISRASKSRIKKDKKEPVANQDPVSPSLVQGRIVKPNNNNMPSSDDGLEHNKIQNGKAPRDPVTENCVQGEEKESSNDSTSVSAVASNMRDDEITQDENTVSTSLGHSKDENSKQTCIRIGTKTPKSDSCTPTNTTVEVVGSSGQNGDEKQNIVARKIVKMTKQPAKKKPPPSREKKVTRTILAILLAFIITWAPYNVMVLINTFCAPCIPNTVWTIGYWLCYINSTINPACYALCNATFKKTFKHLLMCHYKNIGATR

[8] = metabolite profile in dog hepatocytes; type: in vitro ADME; conditions: 10 μM of 1 for 4 h, UV 250 nm, normalized to largest peak
[9] = metabolite profile in monkey hepatocytes; type: in vitro ADME; conditions: 10 μM of 1 for 4 h, UV 250 nm, normalized to largest peak
hr ACES = hr ACES (Homo sapiens, UniProt P22303); experiment: receptor profile (Table S4); type: biochemical
Sequence of hr ACES (P22303 32-614): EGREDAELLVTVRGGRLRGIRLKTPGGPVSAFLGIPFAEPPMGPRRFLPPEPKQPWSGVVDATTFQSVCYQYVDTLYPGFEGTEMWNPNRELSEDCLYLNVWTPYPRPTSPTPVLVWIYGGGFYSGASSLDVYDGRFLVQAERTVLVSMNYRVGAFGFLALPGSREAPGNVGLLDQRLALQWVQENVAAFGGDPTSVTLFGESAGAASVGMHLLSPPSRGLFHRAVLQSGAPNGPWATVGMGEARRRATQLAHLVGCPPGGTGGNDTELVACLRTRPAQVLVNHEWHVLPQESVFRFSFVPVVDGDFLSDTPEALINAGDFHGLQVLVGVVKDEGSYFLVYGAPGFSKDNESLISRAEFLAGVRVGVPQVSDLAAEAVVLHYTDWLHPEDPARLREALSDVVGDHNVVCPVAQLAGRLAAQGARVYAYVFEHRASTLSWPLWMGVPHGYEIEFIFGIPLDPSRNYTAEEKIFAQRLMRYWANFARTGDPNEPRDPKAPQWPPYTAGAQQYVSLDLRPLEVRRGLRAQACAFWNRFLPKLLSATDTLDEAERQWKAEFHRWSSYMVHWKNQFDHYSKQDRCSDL

hr AT1 = biological target: T3, hr AT1 (Homo sapiens, UniProt P30556); experiment: receptor profile (Table S4); type: binding
T3 sequence (P30556 1-359): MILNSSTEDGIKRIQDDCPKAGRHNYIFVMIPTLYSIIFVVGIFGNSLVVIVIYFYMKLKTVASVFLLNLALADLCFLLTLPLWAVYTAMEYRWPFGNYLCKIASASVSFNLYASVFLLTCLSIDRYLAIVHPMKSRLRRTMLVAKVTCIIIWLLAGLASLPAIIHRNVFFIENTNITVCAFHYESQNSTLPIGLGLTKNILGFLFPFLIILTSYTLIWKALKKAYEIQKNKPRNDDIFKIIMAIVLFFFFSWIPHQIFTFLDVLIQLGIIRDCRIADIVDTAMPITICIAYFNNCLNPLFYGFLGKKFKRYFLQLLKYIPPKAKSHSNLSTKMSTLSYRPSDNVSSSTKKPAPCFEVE

[10] = male beagle dog, 1.0 mg/kg PO, dose-normalized

Sequence of hr ERBB2 (P04626 23-1255): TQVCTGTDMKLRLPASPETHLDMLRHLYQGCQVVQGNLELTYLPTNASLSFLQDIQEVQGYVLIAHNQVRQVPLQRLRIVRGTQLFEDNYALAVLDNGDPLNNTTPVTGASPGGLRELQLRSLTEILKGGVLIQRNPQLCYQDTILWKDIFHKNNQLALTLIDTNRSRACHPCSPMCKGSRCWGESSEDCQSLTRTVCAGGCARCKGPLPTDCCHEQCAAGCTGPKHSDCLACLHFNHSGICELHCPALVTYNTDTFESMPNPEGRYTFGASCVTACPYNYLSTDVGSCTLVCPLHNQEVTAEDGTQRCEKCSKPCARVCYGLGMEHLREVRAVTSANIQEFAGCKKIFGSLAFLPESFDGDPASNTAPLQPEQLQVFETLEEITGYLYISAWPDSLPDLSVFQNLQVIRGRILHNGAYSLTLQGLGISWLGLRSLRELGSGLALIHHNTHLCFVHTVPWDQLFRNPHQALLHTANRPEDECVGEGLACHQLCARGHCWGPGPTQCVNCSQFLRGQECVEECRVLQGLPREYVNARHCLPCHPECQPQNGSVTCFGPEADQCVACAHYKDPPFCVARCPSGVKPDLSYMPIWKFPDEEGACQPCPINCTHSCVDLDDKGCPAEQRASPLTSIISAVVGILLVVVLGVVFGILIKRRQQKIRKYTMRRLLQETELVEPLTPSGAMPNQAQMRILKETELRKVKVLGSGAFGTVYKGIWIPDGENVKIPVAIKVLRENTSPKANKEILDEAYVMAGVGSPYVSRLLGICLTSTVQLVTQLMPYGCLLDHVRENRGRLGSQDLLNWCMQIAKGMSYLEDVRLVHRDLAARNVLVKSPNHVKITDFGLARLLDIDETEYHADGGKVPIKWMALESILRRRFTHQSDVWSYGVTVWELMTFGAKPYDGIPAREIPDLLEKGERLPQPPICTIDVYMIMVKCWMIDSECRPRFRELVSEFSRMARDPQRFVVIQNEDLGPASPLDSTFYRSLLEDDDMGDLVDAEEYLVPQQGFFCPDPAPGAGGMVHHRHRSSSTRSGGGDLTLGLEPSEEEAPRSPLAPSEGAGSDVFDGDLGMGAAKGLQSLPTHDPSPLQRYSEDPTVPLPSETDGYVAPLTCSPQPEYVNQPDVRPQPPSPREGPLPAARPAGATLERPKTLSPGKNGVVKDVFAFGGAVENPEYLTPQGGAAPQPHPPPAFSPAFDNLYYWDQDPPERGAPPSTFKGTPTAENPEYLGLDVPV
Sequence of hr PDE4D (Q08499 whole entry): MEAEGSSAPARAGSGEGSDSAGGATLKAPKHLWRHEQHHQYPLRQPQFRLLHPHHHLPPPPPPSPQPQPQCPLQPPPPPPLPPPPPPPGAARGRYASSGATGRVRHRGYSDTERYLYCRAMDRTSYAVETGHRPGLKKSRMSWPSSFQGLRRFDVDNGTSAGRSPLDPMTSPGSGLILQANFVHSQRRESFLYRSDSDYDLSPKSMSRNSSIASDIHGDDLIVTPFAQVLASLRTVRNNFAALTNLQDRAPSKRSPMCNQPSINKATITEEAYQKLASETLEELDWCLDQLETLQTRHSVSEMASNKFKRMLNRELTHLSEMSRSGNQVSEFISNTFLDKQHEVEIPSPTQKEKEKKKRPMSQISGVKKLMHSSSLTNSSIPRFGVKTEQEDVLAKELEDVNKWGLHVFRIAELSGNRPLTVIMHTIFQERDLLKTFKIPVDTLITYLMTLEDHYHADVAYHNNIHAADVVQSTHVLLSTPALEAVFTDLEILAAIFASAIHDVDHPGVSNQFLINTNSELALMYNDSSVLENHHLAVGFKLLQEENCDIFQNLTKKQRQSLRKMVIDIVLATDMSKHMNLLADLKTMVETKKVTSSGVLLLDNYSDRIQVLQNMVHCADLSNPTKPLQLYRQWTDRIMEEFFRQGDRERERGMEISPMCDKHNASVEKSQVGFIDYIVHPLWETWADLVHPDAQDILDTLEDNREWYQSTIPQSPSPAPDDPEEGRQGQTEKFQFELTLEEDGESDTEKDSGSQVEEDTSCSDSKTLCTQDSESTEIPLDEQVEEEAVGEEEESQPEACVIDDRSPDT

Structure (SMILES): Cc1nc(C)c(C(=O)Nc2ccc(F)c(-c3nc4ncc(-c5ncccc5C)cn4n3)c2)o1 [compound 1, N-(4-Fluoro-3-(6-(3-methylpyridin-2-yl)-[1,2,4]triazolo[1,5-a]pyrimidin-2-yl)phenyl)-2,4-dimethyloxazole-5-carboxamide]
- concentration in FASSIF (supersaturation) ([1]; fumarate cocrystal of 1, FASSIF, at 16 min): 73 µM
- dissolution rate ([1]; fumarate cocrystal of 1 vs free base of 2, Figure 1): significantly higher dissolution rate
- EC50/IC50 (hr ERBB2; hr ERBB2): > 30 µM
- inhibition at 10 µM (hr ERBB2; read-out: % inh/act @ 10 µM): 0%
- inhibition at 30 µM (hr ERBB2; read-out: % inh/act @ 30 µM): 0%
- EC50/IC50 (hr PDE4D; hr PDE4D): > 30 µM
- inhibition at 10 µM (hr PDE4D; read-out: % inh/act @ 10 µM): 35%
- inhibition at 30 µM (hr PDE4D; read-out: % inh/act @ 30 µM): 49%
- EC50/IC50 (hr Beta2 ag; hr Beta2 ag): > 30 µM
- inhibition at 10 µM (hr Beta2 ag; read-out: % inh/act @ 10 µM): 1%
- inhibition at 30 µM (hr Beta2 ag; read-out: % inh/act @ 30 µM): 7%
- EC50 [2]: 0.04 µM
- solubility kinetic [3]: 17 µM (≈ 7.54 µg/mL)
- EC50/IC50 (hr DAT; hr DAT): > 30 µM
- inhibition at 10 µM (hr DAT; read-out: % inh/act @ 10 µM): 17%
- inhibition at 30 µM (hr DAT; read-out: % inh/act @ 30 µM): 22%
- EC50/IC50 (hr CB1 ag; hr CB1 ag): > 30 µM
- inhibition at 10 µM (hr CB1 ag; read-out: % inh/act @ 10 µM): 0%
- inhibition at 30 µM (hr CB1 ag; read-out: % inh/act @ 30 µM): 3%
- AMES, risk of mutagenicity (in vitro AMES): did not indicate a risk
- EC50/IC50 (hr GHS; hr GHS): > 30 µM
- inhibition at 10 µM (hr GHS; read-out: % inh/act @ 10 µM): 12%
- inhibition at 30 µM (hr GHS; read-out: % inh/act @ 30 µM): 12%
- micronucleus (MNT), risk of clastogenicity [4]: did not indicate a risk
- effect of β5 Y113F mutation of T. brucei proteasome on activity ([5]; T. brucei, β5 Y113F): loss of activity
- EC50 ([5]; Trypanosoma brucei, 48 h, read-out: EC50, T. brucei growth): 3.3 µM
- IC50 [6]: 0.05 µM
- ER rat [7]: < 0.18
- EC50/IC50 (hr TP antag; hr TP antag): > 30 µM
- inhibition at 10 µM (hr TP antag; read-out: % inh/act @ 10 µM): 14%
- inhibition at 30 µM (hr TP antag; read-out: % inh/act @ 30 µM): 28%
- EC50/IC50 (hr Mot; hr Mot): > 30 µM
- inhibition at 10 µM (hr Mot; read-out: % inh/act @ 10 µM): -3%
- inhibition at 30 µM (hr Mot; read-out: % inh/act @ 30 µM): 3%
- EC50/IC50 (hr M2 antag; hr M2 antag): > 30 µM
- inhibition at 10 µM (hr M2 antag; read-out: % inh/act @ 10 µM): 16%
- inhibition at 30 µM (hr M2 antag; read-out: % inh/act @ 30 µM): 31%
- CL as % of hepatic blood flow (dog, IV, fumarate salt): 37 % of hepatic blood flow
- DN AUC PO [10]: 1.5 µM·h
- DN Cmax PO [10]: 0.3 µM
- abundance dog [8]: +++ (+++ > 75%)
- abundance monkey [9]: +++ (+++ > 75%)
- EC50/IC50 (hr ACES; hr ACES): > 30 µM
- inhibition at 10 µM (hr ACES; read-out: % inh/act @ 10 µM): 16%
- EC50/IC50 (hr AT1; hr AT1): > 30 µM
- inhibition at 10 µM (hr AT1; read-out: % inh/act @ 10 µM): 22%
- inhibition at 30 µM (hr AT1; read-out: % inh/act @ 30 µM): 41%
